Test results published in patent US10329304B2, “Compounds and methods for inhibition of hedgehog signaling and phosphodiesterase” (Vanderbilt University, priority 2014, dated 2019).
“Also recorded” adds a separate entry of the source. Like-named read-outs stand apart in the source and are kept apart here.

How the values were obtained:
[1] = tested on: Hedgehog signaling (TM3-Gli-Luc); experiment: TM3-Gli-Luc luciferase reporter assay stimulated with 20 nM SAG; assay type: cell-based
Procedure, shortened: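 TM3-Gli-Luc cells on 0.1% gelatin in DMEM/F12 with 2.5% FBS, treated 48 h with compound plus 20 nM SAG. Steady-Glo luminescence normalized to CellTiter-Glo viability, DMSO-only (no SAG) background subtracted, percent of SAG control. EC50 averaged from ≥2 independent days ±SEM.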

Ptch1 transcription = experiment: Sufu−/− mouse embryonic fibroblasts qRT-PCR; assay type: cell-based; details: for inhibition at 10 µM: Mus musculus, Fibroblast, read-out: Sufu Null (Ptc) % Inh., 10 μM
Text: (§1) In light of EGM1's ability to halt Hh transcriptional activity at a node downstream of the negative regulator Sufu, and thus also downstream of Smo, we sought to confirm mode of action retention with our most promising analogs. Therefore, we employed Sufu−/− mouse embryonic fibroblasts (MEF) that display constitutively active transcription of Hh target genes Gli1 and Ptch1 and monitored the ability of our optimized analogs to repress signaling via quantitative reverse transcription-PCR (qRT-PCR). […] We then evaluated improved analogs from multiple structural classes including those from Table 1 with cyclohexylthiophene cores as well as from Table 13 with structurally distinct core modifications.
(§2) Sufu^−/− cells were seeded into 12-well plates at a density of 100,000 cells/well in D10 FBS and incubated for 24 hours. Small molecule solutions were prepared by adding the desired amount of compound from 10 mM DMSO stock to D0.5 FBS. Negative control was prepared by adding an equi-volume amount of DMSO to D0.5 FBS as compared to small molecule treated conditions. Cell plating medium was aspirated and replaced with 1 mL of prepared small molecule-containing media, and plates were incubated for 24 hours before proceeding to RNA isolation.
(§3) Cells were washed 1× with 1× phosphate-buffered saline (PBS) then RNA was isolated using the Qiagen RNeasy Mini Kit (Qiagen, Germantown, Md., USA) according to the manufacturer's protocol, eluting RNA from the spin column with 30 μL of RNase-free water. RNA was placed on ice and immediately subjected to reverse transcription. Remaining RNA was stored at −80° C.
(§4) Reverse transcription polymerase chain reaction (RT-PCR) was performed with the Applied Biosystems High Capacity cDNA Reverse Transcription Kit (ThermoFisher Scientific, Waltham, Mass., USA) using an Eppendorf MasterCycler. Each 20 μL reaction contained 0.5 μg of total RNA, 2 μL of 10×RT Buffer, 0.8 μL of 25×dNTP Mix (100 mM), 2 μL of 10×RT Random Primers, 1 μL of MultiScribe® Reverse Transcriptase (50 U/μL), 1 μL of Recombinant RNasin® Ribonuclease Inhibitor (40 U/μL) (Promega, Madison, Wis., USA), and nuclease-free water. Reverse transcription was performed with the following program: 25° C. for 10 minutes, 37° C. for 120 minutes, and 85° C. for 5 minutes. The cDNA was subjected to quantitative real-time PCR (Q-PCR) or stored at −20° C.
(§5) Quantitative real-time PCR was performed on an Applied Biosystems 7900 HT Fast Real Time PCR System in 384-well format. Each cDNA sample was assayed in triplicate with both probe of interest and control probe. Master mixes for each probe were prepared corresponding to 10 μL of Applied Biosystems TaqMan Universal PCR Master Mix (ThermoFisher Scientific, Waltham, Mass., USA), 1 μL of primer, and nuclease-free water corresponding to a volume providing 20 μL reactions when loading an average of 50 ng of cDNA. Quantitative real-time PCR was run with the following thermal cycling protocol: 50° C. for 2 min., 95° C. for 10 min., and 40 cycles of 95° C. for 15 seconds, 60° C. for 1 min., then fluorescence reading. The following FAM probes were purchased from Life Technologies (Carlsbad, Calif., USA): mouse GAPDH, Mm99999915_g1; mouse Gli1, Mm00494646_g1; mouse Ptch1, Mm01306905_m1.
(§6) Quantitative real-time PCR data for Hh signaling inhibition was quantitated using the ΔΔCt method. Control probe values were subtracted from probe of interest values to arrive at the ΔCt value. The ΔCt value was transformed by 2-^ΔCt to arrive at the ΔΔCt value. All ΔΔCt values were divided by the average negative control ΔΔCt value to provide percent Hh signaling activity. Percent inhibition values were derived by calculating the inverse of percent activity. Data is reported as mean±standard error of the mean (SEM), representing at least two biological replicates, each quantitated in triplicate.

Gli1 mRNA = experiment: Hh % Inh.: SAG-induced Gli1 expression in C3H10T½ cells (qPCR); assay type: cell-based; details: Mus musculus, C3H 10T1/2, SAG-induced (100 nM), 24 hours; for inhibition at 1 µM: 1 pM [sic], read-out: C3H10T1/2 qPCR, Gh1 mRNA % Inh., 1 pM; for inhibition at 10 µM: 10 pM [sic], read-out: C3H10T1/2 qPCR, Gh1 mRNA % Inh., 10 pM; for EC50: read-out: C3H10T1/2 qPCR, Gh1 mRNA EC50
Description: Compounds are dosed from 10 mM DMSO stock solutions, and mRNA is isolated after 24 hours of compound treatment. mRNA is reverse transcribed to produce cDNA which is quantified by quantitative polymerase chain reaction (qPCR) in triplicate and levels are normalized to GAPDH levels. Data is presented as percent inhibition compared to positive control (SAG).

Gli1 transcription = experiment: Sufu−/− mouse embryonic fibroblasts qRT-PCR; assay type: cell-based; details: for Transcriptional inhibition in the Sufu−/− cell line, in words: Gli1 and Ptch1
Text: as §1, §2, §3, §4, §5, §6

[2] = Lipophilic efficiency (LipE = pEC50 − cLogP) and cLogP
Description: Therefore, we prioritized phenotypic analog evaluation in the Gli-responsive luciferase reporter line TM3-Gli-Luc stimulated with 20 nM Smo agonist (SAG) while concurrently monitoring non-specific cellular toxicity. Additionally, lipophilic efficiency (LipE), a concurrent readout of a compound's potency (pEC50) and lipophilicity (cLogP) derived by subtracting the latter from the former, was utilized to optimize solubility properties (Table 12B), allowing for straightforward tracking of compounds with improvements in both parameters.

[3] = biological target: T1, Smo cyclopamine (Cyc) binding site (Homo sapiens, UniProt Q99835); experiment: BODIPY-cyclopamine competition in HEK-293T cells overexpressing Smo
T1 construct: expressed in transfected cells; host or cells: HEK-293T
Description: Thus, HEK-293T cells overexpressing Smo were concurrently treated with 5 nM BODIPY-Cyc and molecules of interest.

PKA activation = experiment: Immunostaining of autophosphorylated PKA catalytic subunit in NIH3T3 cells; assay type: cell-based; details: SAG-stimulated NIH3T3 cells, Egm 5 μM, Rolipram 10 μM
Description: NIH3T3 cells were plated on Poly-D-Lysine-coated glass coverslips and were cultured at 37° C., 5% CO2 in DMEM medium containing 10% fetal bovine serum until reaching 75% confluency. For one set of experiments, cells were then transfected with VSV-tagged PDE4D3 plasmid (gift from Miles Houslay, University of Glasgow, Scotland, UK) using Fugene6 transfection reagent (Roche, Indianapolis, Ind.) per manufacturer's protocol. Afterward, cell medium was replaced with DMEM/0.5% FBS containing either 5 μM eggmanone or DMSO and incubated overnight at 37° C., 5% CO2. Cells were fixed in 4% PFA at room temperature for 10 minutes prior to permeabilization, blocking, and staining with primary antibodies against Arl13b (gift of Tamary Caspary, Emory University, Atlanta, Ga.) and VSV (AbCam, Cambridge, Mass.). Fluorescent immunocytochemistry was performed using species-specific, secondary antibodies (Jackson Immunoresearch, West Grove, Pa.). For additional immunocytochemistry experiment, cells were treated with 20 nM SAG in the presence or absence of 5 uM Eggmanone. After overnight incubation, cells were washed with PBS, fixed for 10 minutes in 4% PFA, permeabilized 20 minutes at −20C with cold methanol, blocked with PBS/1% BSA, and incubated with primary antibodies to phospho-PKA catalytic domain Thr197 (Cell Signaling, Danvers, Mass.) and then to Arl13b. An additional overnight blocking step using unconjugated rabbit IgG was required between primary antibody incubations since both antibodies were produced in rabbit. Fluorescent conjugated secondary antibodies were used for visualization. Data analysis was performed in part through the use of the VUMC Cell Imaging Shared Resource.
Using ImageJ software (National Institutes of Health, developed by W. Rasband), a region of interest was created using the magic wand tool on Arl13b channel and transposed to the Gli2 channel, and integrated density was measured and reported as arbitrary units (a.u.). For phospho-PKA, using ImageJ, a line selection tool was used to select a line projected through the length of the primary cilia and an equal length beyond. The intensity values were potted and the cumulative florescence (area under the curve) was calculated for three cilia, blindly, for each treatment. These values for cilia and pericilia domain were analyzed by a two tailed students t-test. For correlation analysis, correlation coefficient for intensity of gamma-tubulin and phosphor-PKA were calculated and compared among treatments with students t-test.

[4] = Table 9A, read-out: TM3 G8 Luciferase EC 50
[5] = 20 nM SAG, mean ± standard error of the mean, read-out: TM3-Gli-Luc EC50
[6] = TM3-Gli-Luc reporter line stimulated with 20 nM SAG, mean ± SEM, Table 14, read-out: TM3-Gli-Luc EC50
[7] = Calculated as pEC50 - cLogP, Molinspiration Cheminformatics
[8] = TM3-Gli-Luc reporter line stimulated with 20 nM SAG, mean ± SEM, Table 13, read-out: TM3-Gli-Luc EC50
[9] = KAAD-Cyc 200 nM, analogs at 10- to 20-fold their EC50s
[10] = calculated as pEC50 - cLogP (Molinspiration Cheminformatics), Table 13

T1 sequence (Q99835 28-787): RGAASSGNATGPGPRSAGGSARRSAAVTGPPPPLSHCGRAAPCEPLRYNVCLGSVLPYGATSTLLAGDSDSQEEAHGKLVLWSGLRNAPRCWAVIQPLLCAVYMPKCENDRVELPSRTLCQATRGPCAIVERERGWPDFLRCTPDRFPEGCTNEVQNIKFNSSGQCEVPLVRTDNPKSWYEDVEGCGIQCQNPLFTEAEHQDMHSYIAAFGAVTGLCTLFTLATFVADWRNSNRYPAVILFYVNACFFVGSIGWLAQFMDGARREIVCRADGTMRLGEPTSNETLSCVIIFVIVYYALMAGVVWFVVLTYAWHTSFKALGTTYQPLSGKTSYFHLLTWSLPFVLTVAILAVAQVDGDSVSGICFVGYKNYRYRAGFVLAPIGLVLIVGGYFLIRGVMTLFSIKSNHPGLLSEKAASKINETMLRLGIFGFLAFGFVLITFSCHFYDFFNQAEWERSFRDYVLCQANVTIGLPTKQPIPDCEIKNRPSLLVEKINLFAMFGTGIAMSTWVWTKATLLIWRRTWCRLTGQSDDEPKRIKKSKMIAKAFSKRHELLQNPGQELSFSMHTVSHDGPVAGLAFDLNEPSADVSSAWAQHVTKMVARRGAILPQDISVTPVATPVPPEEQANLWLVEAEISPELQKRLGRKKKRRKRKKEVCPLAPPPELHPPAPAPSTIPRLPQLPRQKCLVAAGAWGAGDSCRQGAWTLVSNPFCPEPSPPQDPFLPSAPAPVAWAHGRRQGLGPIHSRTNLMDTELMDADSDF

| SMILES | EC50 [1, 4] [nM] | inhibition at 10 µM (Ptch1 transcription) [%] | inhibition at 1 µM (Gli1 mRNA) [%] | inhibition at 10 µM (Gli1 mRNA) [%] | EC50 (Gli1 mRNA) [nM] | EC50 [1, 6] [nM] | LipE ([2]; pEC50 - cLogP, Table 14) | Transcriptional inhibition in the Sufu−/− cell line, in words (Gli1 transcription) | further results |
| --- | --- | --- | --- | --- | --- | --- | --- | --- | --- |
| C=C(C)Cn1c(SCC(=O)N2CCCCC2C)nc2sc3c(c2c1=O)CCCC3 (stereo not shown) [JEH-3-069-2] | 2500 | 77.6 | 38.6 | 97.6 | 2740 | – | – | – | – |
| Cc1c(C(=O)Nc2ccc(N3C[C@@H](C)O[C@@H](C)C3)nc2)cccc1-c1ccc(OC(F)(F)F)cc1 [Sonidegib, reference compound] | – | – | – | – | – | 1.2 ± 0.2 | 3.02 | – | Hh inhibitory activity / potency in words ([1]; 20 nM SAG): displayed expected potency; Hh inhibitory activity / potency in words ([1]; 20 nM SAG, listed as 2): low-nanomolar; EC50 [1, 5]: 1.2 ± 0.2 nM; inhibition of Gli1 transcription (Gli1 transcription; 0.1 μM): failed to inhibit transcription; inhibition of Ptch1 transcription (Ptch1 transcription; 0.1 μM): failed to inhibit transcription; LipE [2, 7]: 3.02 |
| CCn1c(SCC(=O)c2cccs2)nc2sc3c(c2c1=O)CCCC3 [JEH-3-087-1] | 12000 | 21.6 | 39.5 | 96.1 | 1370 | – | – | – | – |
| O=C(CSc1nc2ccccc2c(=O)n1C1CC1)c1cccs1 [Formula 14b] | – | – | – | – | – | 685 ± 20 | 2.78 | lack of Sufu−/− transcriptional inhibition | Hh inhibitory activity / potency in words ([1]; 20 nM SAG): potency improvements over EGM1; EC50 ([1]; 20 nM SAG, read-out: EC50): 685 nM; EC50 [1, 8]: 685 ± 20 nM; Displacement of BODIPY-cyclopamine (5 nM) from Smo [3, 9]: do not displace the binding of BODIPY-cyclopamine; also recorded: failed to compete for the Smo binding site; LipE [2, 10]: 2.78 |
| O=C(CSc1nc2sccc2c(=O)n1C1CC1)c1cccs1 [Formula 19b] | – | – | – | – | – | 933 ± 100 | 2.89 | lack of Sufu−/− transcriptional inhibition | EC50 [1, 8]: 933 ± 100 nM; Displacement of BODIPY-cyclopamine (5 nM) from Smo [3, 9]: do not displace the binding of BODIPY-cyclopamine; also recorded: failed to compete for the Smo binding site; LipE [2, 10]: 2.89 |
| CCCC(=O)Nc1ncnc2c1ncn2[C@@H]1O[C@@H]2COP(=O)(O)O[C@H]2[C@H]1OC(=O)CCC [dibutyril cAMP (DBA), dibutyril cAMP, reference compound] | – | – | – | – | – | – | – | – | PKA activation (phospho-PKA-C staining), spatial distribution (PKA activation): induce spatially localized PKA activation in the basal body; PKA activation (phospho-PKA-C staining), spatial distribution (PKA activation; listed as dibutyril cAMP): more diffuse increase in phospho-PKA staining |
| CC1=C2C[C@H]3[C@@H](CC=C4CC(=O)CC[C@@]43C)[C@@H]2CC[C@]12O[C@@H]1C[C@H](C)CN(CCNC(=O)CCCCCNC(=O)CCc3ccccc3)[C@H]1[C@H]2C [KAAD-Cyc, KAAD-cyclopamine, reference compound] | – | – | – | – | – | – | – | – | Displacement of BODIPY-cyclopamine (5 nM) from Smo [3]: completely displaced BODIPY-Cyc |
| C=C(C)Cn1c(SCC(=O)N2CCCCC2)nc2sc3c(c2c1=O)CCCC3 [JEH-3-048-3] | 6310 | -13.7 | 33.8 | 98.6 | – | – | – | – | – |
| CCCn1c(SCC(=O)c2cccs2)nc2sc3c(c2c1=O)CCCC3 [JEH-3-087-2] | 1580 | 12.1 | 64.2 | 101 | 789 | – | – | – | – |
| O=C(CSc1nc2sc3c(c2c(=O)n1C1CC1)CCCC3)c1cccs1 [Formula 9b] | – | – | – | – | – | 1890 ± 750 | 1.40 | general ability to inhibit transcriptional activity | EC50 [1, 5]: 1890 ± 750 nM; LipE [2, 7]: 1.40 |
